Test results taken from the kinase profiling compilation of Christmann-Franck et al. (2016).

Experiments:
Experiment in all cases: KINOMEscan competition binding
Conditions in all cases: compound 10.0 µM
PIP4K2B (human) = PIP4K2B (human) (UniProt P78356)
ANKK1 (human) = ANKK1 (human) (UniProt Q8NFD2)
CSNK1E (human) = CSNK1E (human) (UniProt P49674)
MAP4K5 (human) = MAP4K5 (human) (UniProt Q9Y4K4)
CaMK1 (human) = CaMK1 (human) (UniProt Q14012)
TNIK (human) = TNIK (human) (UniProt Q9UKE5)
CSNK1G3 (human) = CSNK1G3 (human) (UniProt Q9Y6M4)
NUAK2 (human) = NUAK2 (human) (UniProt Q9H093)
EPHA7 (human) = EPHA7 (human) (UniProt Q15375)
Chain of EPHA7 (human) (Q15375 whole entry, looked up): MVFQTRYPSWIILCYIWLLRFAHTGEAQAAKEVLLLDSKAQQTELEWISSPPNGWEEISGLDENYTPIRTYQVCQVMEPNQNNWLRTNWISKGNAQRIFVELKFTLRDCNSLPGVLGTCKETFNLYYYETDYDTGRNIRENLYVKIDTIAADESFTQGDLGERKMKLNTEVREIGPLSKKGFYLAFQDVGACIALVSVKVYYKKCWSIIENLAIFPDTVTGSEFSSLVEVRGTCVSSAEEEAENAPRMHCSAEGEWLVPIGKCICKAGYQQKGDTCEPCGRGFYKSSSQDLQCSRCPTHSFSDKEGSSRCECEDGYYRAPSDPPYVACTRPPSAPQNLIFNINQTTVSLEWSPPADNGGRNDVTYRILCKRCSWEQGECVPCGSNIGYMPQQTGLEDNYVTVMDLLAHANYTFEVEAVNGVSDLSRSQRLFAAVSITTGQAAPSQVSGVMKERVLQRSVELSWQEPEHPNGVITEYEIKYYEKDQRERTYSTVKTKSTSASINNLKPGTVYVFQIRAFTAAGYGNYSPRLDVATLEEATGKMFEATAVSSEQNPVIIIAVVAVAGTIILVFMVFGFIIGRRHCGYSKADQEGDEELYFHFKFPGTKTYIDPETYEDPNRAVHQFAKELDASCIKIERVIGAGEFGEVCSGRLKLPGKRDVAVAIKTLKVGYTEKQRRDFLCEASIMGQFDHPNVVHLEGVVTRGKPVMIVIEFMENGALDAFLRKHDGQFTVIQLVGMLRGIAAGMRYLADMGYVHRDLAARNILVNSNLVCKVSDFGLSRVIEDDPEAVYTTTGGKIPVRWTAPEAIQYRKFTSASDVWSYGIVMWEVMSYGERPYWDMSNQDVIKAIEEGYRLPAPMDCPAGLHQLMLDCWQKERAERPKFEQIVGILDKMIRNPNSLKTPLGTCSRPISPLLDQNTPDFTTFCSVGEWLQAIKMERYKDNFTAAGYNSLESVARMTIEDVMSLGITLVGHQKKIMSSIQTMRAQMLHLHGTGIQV

AURKC (human) = AURKC (human) (UniProt Q9UQB9)
NEK5 (human) = NEK5 (human) (UniProt Q6P3R8)
MAPK11 (human) = MAPK11 (human) (UniProt Q15759)
[1] = system: EIF2AK4 KD2 (human), Q9P2K8 [S808G]
CDK14 (human) = CDK14 (human) (UniProt O94921)
PKN1 (human) = PKN1 (human) (UniProt Q16512)
TNK1 (human) = TNK1 (human) (UniProt Q13470)
MELK (human) = MELK (human) (UniProt Q14680)
TNNI3K (human) = TNNI3K (human) (UniProt Q59H18)
TSSK1B (human) = TSSK1B (human) (UniProt Q9BXA7)
MAP3K3 (human) = MAP3K3 (human) (UniProt Q99759)
Chain of MAP3K3 (human) (Q99759 whole entry, looked up): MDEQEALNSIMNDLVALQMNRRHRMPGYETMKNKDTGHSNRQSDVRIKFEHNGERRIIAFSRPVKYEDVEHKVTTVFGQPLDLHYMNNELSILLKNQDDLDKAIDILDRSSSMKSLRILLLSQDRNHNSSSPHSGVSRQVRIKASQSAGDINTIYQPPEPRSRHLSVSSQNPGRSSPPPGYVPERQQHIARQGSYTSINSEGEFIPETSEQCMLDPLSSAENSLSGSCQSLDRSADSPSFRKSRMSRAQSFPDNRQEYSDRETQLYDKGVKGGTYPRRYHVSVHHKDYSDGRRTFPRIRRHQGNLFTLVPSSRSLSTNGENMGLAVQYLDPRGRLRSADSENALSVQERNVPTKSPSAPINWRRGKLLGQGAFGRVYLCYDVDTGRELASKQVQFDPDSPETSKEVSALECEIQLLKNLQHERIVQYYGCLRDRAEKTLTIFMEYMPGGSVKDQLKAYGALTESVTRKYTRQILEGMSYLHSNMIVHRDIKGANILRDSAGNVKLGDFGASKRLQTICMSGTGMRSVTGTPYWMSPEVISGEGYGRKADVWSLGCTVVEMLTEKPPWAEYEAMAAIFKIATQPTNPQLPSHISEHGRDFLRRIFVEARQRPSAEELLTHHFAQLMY

PDPK1 (human) = PDPK1 (human) (UniProt O15530)
PRKCD (human) = PRKCD (human) (UniProt Q05655)
PLK3 (human) = PLK3 (human) (UniProt Q9H4B4)
PTK6 (human) = PTK6 (human) (UniProt Q13882)
Chain of PTK6 (human) (Q13882 whole entry, looked up): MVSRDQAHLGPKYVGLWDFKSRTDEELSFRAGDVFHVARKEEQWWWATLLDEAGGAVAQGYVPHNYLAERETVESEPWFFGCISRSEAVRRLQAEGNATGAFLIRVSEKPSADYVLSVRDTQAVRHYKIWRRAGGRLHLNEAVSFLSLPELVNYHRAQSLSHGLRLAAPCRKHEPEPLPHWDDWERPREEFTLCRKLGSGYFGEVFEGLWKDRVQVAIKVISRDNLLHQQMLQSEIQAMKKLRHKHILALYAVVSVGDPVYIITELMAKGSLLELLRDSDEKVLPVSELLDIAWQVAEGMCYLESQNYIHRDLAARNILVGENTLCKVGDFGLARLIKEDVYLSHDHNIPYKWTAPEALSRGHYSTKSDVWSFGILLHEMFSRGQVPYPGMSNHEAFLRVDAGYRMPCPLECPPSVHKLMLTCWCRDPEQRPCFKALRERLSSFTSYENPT

DAPK3 (human) = DAPK3 (human) (UniProt O43293)
STK35 (human) = STK35 (human) (UniProt Q8TDR2)
CIT (human) = CIT (human) (UniProt O14578)
ABL2 (human) = ABL2 (human) (UniProt P42684)
CAMK4 (human) = CAMK4 (human) (UniProt Q16566)
[2] = system: FLT3 (human), P36888 [N841I]
PTK2B (human) = PTK2B (human) (UniProt Q14289)
RIOK1 (human) = RIOK1 (human) (UniProt Q9BRS2)
MAP3K4 (human) = MAP3K4 (human) (UniProt Q9Y6R4)
Chain of MAP3K4 (human) (Q9Y6R4 whole entry, looked up): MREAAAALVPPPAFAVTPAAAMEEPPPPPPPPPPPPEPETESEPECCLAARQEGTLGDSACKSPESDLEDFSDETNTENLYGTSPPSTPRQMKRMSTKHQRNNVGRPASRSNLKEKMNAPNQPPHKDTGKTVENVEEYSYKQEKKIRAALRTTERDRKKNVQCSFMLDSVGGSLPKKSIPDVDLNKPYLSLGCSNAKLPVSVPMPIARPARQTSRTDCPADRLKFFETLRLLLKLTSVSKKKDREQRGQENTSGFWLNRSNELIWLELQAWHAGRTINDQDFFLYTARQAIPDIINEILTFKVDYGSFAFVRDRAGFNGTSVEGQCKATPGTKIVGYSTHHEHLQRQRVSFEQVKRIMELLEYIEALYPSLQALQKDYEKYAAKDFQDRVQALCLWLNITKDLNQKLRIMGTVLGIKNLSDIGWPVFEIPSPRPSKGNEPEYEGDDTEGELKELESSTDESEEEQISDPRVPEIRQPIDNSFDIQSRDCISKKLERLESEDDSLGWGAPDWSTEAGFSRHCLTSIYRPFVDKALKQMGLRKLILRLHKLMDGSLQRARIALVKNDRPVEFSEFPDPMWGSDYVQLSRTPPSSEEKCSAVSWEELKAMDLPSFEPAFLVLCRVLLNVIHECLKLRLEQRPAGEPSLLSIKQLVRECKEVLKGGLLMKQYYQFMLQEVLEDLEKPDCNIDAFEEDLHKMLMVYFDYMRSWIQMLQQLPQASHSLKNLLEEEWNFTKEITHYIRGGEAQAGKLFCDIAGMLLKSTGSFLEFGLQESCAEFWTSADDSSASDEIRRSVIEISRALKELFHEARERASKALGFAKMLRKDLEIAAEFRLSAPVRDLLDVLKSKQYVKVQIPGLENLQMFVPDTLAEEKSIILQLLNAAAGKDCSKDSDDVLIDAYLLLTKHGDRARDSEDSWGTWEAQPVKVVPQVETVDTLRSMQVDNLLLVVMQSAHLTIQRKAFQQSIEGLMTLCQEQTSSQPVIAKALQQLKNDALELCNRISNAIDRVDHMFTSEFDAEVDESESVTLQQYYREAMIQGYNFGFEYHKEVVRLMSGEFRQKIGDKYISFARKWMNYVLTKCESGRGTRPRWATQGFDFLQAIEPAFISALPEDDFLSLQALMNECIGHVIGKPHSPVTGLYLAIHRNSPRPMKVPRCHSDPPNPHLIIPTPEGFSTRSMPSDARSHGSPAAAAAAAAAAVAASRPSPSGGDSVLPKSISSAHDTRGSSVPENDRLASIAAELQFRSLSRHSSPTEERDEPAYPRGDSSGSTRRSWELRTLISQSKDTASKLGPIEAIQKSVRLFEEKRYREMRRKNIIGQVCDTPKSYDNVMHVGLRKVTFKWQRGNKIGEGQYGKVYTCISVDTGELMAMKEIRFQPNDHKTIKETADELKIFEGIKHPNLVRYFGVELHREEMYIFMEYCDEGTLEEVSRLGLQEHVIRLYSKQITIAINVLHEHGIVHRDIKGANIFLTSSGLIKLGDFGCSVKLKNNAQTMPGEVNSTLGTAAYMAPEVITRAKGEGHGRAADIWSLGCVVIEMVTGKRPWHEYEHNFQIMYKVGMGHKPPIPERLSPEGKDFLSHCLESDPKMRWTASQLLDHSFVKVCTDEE

NTRK1 (human) = NTRK1 (human) (UniProt P04629)
CAMK1G (human) = CAMK1G (human) (UniProt Q96NX5)
MYLK (human) = MYLK (human) (UniProt Q15746)
TLK1 (human) = TLK1 (human) (UniProt Q9UKI8)
BRSK2 (human) = BRSK2 (human) (UniProt Q8IWQ3)
Chain of BRSK2 (human) (Q8IWQ3 whole entry, looked up): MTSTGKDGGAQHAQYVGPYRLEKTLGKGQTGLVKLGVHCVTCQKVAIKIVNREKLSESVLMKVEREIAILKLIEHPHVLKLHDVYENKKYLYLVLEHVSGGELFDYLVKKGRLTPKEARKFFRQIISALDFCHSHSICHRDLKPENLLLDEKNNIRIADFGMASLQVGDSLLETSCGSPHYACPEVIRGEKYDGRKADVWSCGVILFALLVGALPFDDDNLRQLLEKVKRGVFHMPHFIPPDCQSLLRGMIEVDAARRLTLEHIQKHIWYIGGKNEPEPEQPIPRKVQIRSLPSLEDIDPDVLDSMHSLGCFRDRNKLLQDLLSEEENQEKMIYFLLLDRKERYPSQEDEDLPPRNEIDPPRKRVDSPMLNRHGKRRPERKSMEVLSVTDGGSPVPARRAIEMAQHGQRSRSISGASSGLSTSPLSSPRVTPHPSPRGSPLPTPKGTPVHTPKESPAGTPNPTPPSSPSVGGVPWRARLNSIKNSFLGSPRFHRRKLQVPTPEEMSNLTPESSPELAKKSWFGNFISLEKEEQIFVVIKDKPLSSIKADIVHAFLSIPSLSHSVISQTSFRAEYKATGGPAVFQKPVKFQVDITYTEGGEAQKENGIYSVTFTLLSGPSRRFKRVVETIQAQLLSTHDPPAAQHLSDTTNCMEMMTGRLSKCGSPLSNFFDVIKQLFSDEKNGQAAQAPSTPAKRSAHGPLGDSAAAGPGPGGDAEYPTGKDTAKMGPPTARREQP

WEE2 (human) = WEE2 (human) (UniProt P0C1S8)
BLK (human) = BLK (human) (UniProt P51451)

Chain of CaMK1 (human) (Q14012 whole entry, looked up): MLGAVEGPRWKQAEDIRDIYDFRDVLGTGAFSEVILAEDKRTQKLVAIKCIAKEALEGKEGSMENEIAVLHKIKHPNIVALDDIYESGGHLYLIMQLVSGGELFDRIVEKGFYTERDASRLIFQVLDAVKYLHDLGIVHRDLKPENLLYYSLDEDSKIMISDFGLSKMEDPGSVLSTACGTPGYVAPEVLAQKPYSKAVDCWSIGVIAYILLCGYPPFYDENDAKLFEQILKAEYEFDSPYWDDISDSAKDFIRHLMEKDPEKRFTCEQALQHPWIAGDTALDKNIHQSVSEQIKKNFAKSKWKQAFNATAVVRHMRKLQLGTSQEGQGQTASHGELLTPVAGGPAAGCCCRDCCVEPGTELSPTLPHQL

`COc1cc(N2CCN(C)CC2)ccc1Nc1nc(N)c(C(=O)c2c(Cl)cccc2Cl)s1` was tested, and the kinase still bound, per cent of control (PIP4K2B (human)) was 100%, the kinase still bound, per cent of control (ANKK1 (human)) was 96% and the kinase still bound, per cent of control (CSNK1E (human)) was 56%. The kinase still bound, per cent of control (MAP4K5 (human)) was 78%, the kinase still bound, per cent of control (CaMK1 (human)) was 0.75% and the kinase still bound, per cent of control (TNIK (human)) was 69%. The kinase still bound, per cent of control (CSNK1G3 (human)) was 79%, the kinase still bound, per cent of control (NUAK2 (human)) was 60% and the kinase still bound, per cent of control (EPHA7 (human)) was 88%. The kinase still bound, per cent of control (AURKC (human)) was 100%, the kinase still bound, per cent of control (NEK5 (human)) was 96% and the kinase still bound, per cent of control (MAPK11 (human)) was 77%. It also gave a kinase still bound, per cent of control [1] of 100%, a kinase still bound, per cent of control (CDK14 (human)) of 91% and a kinase still bound, per cent of control (PKN1 (human)) of 100%. It also gave a kinase still bound, per cent of control (TNK1 (human)) of 100%, a kinase still bound, per cent of control (MELK (human)) of 100% and a kinase still bound, per cent of control (TNNI3K (human)) of 82%. It also gave a kinase still bound, per cent of control (TSSK1B (human)) of 87%, a kinase still bound, per cent of control (MAP3K3 (human)) of 76% and a kinase still bound, per cent of control (PDPK1 (human)) of 100%. The kinase still bound, per cent of control (PRKCD (human)) was 68%, the kinase still bound, per cent of control (PLK3 (human)) was 88% and the kinase still bound, per cent of control (PTK6 (human)) was 100%. The kinase still bound, per cent of control (DAPK3 (human)) was 78%, the kinase still bound, per cent of control (STK35 (human)) was 100% and the kinase still bound, per cent of control (CIT (human)) was 94%. It also gave a kinase still bound, per cent of control (ABL2 (human)) of 82%, a kinase still bound, per cent of control (CAMK4 (human)) of 99% and a kinase still bound, per cent of control [2] of 47%. For the same compound, the kinase still bound, per cent of control (PTK2B (human)) was 42%, the kinase still bound, per cent of control (RIOK1 (human)) was 100% and the kinase still bound, per cent of control (MAP3K4 (human)) was 100%. For the same compound, the kinase still bound, per cent of control (NTRK1 (human)) was 62%, the kinase still bound, per cent of control (CAMK1G (human)) was 42% and the kinase still bound, per cent of control (MYLK (human)) was 18%. The kinase still bound, per cent of control (TLK1 (human)) was 86%, the kinase still bound, per cent of control (BRSK2 (human)) was 87% and the kinase still bound, per cent of control (WEE2 (human)) was 100%.
`O=C1Nc2ccc(I)cc2/C1=C/c1cc(Br)c(O)c(Br)c1` was tested, and the kinase still bound, per cent of control (PIP4K2B (human)) was 10%, the kinase still bound, per cent of control (ANKK1 (human)) was 12% and the kinase still bound, per cent of control (CSNK1E (human)) was 84%. For the same compound, the kinase still bound, per cent of control (MAP4K5 (human)) was 100%, the kinase still bound, per cent of control (CaMK1 (human)) was 70% and the kinase still bound, per cent of control (TNIK (human)) was 2.7%. For the same compound, the kinase still bound, per cent of control (CSNK1G3 (human)) was 94%, the kinase still bound, per cent of control (NUAK2 (human)) was 75% and the kinase still bound, per cent of control (EPHA7 (human)) was 100%. For the same compound, the kinase still bound, per cent of control (AURKC (human)) was 71%, the kinase still bound, per cent of control (NEK5 (human)) was 87% and the kinase still bound, per cent of control (MAPK11 (human)) was 88%. For the same compound, the kinase still bound, per cent of control [1] was 78%, the kinase still bound, per cent of control (CDK14 (human)) was 95% and the kinase still bound, per cent of control (PKN1 (human)) was 89%. For the same compound, the kinase still bound, per cent of control (TNK1 (human)) was 100%, the kinase still bound, per cent of control (MELK (human)) was 99% and the kinase still bound, per cent of control (TNNI3K (human)) was 76%. It also gave a kinase still bound, per cent of control (TSSK1B (human)) of 65%, a kinase still bound, per cent of control (MAP3K3 (human)) of 92% and a kinase still bound, per cent of control (PDPK1 (human)) of 100%. It also gave a kinase still bound, per cent of control (PRKCD (human)) of 70%, a kinase still bound, per cent of control (PLK3 (human)) of 86% and a kinase still bound, per cent of control (PTK6 (human)) of 85%. The kinase still bound, per cent of control (DAPK3 (human)) was 2.6%, the kinase still bound, per cent of control (STK35 (human)) was 100% and the kinase still bound, per cent of control (CIT (human)) was 5.6%. For the same compound, the kinase still bound, per cent of control (ABL2 (human)) was 66%, the kinase still bound, per cent of control (CAMK4 (human)) was 100% and the kinase still bound, per cent of control [2] was 12%. The kinase still bound, per cent of control (PTK2B (human)) was 81%, the kinase still bound, per cent of control (RIOK1 (human)) was 14% and the kinase still bound, per cent of control (MAP3K4 (human)) was 95%. It also gave a kinase still bound, per cent of control (NTRK1 (human)) of 82%, a kinase still bound, per cent of control (CAMK1G (human)) of 44% and a kinase still bound, per cent of control (BLK (human)) of 41%. The kinase still bound, per cent of control (MYLK (human)) was 16%, the kinase still bound, per cent of control (TLK1 (human)) was 100% and the kinase still bound, per cent of control (BRSK2 (human)) was 100%. The kinase still bound, per cent of control (WEE2 (human)) was 94%.
